Experiments:
PD-1/PD-L1 PPI = PD-1/PD-L1 PPI (Homo sapiens, UniProt Q9NZQ7); experiment: PDL1/PD1 Binding Assay; settings: PDL1-6×His 0.3 nM, PD1-Fc-Avi-Biotin 2.5 nM, Acceptor/Donor beads, Envision reader
Procedure, shortened: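 AlphaScreen competition: compound (1% DMSO) preincubated 30 min RT with PDL1-6×His (0.3 nM), then PD1-Fc-Avi-Biotin (2.5 nM) 30 min; anti-His acceptor and streptavidin donor beads (20 ug/mL each) added, 1 h each, dark up to overnight. Buffer 25 mM Hepes pH 7.4, 150 mM NaCl. IC50 by four-parameter fit.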

PD-1/PD-L1 interaction = experiment: PD-1/PD-L1 NFAT Reporter Assay (co-culture of Jurkat T cells overexpressing PD-1 and PD-L1 expressing CHO cells); type: cell-based; settings: co-culture 6 hrs at 37° C., NFAT-mediated luciferase activity
Procedure, shortened: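 Compounds added to CHO cells expressing surface anti-CD3 and PD-L1, then Jurkat cells with PD-1 and NFAT-driven luciferase seeded on top; co-culture 6 hrs at 37° C. Luminescence read after ONE-Glo addition, EC50 from dose-response fit.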

Chain of PD-1/PD-L1 PPI (Q9NZQ7 19-238 limits assumed): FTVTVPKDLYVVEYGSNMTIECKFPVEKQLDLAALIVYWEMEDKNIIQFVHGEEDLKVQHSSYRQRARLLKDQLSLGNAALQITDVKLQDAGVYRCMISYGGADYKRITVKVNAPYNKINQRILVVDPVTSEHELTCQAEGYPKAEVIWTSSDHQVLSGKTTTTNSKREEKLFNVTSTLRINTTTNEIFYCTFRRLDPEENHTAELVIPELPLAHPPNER

Row | SMILES | IC50 (PD-1/PD-L1 PPI) | EC50 (PD-1/PD-L1 interaction) | EC50 (PD-1/PD-L1 interaction; Homo sapiens, Jurkat, 6 h)
1 | COc1nc(-c2cccc(-c3cccc(NC(=O)c4cn(C)c(=O)n(C)c4=O)c3C)c2Cl)cc2c1[C@@H](N1CC3(CNC(=O)C3)C1)CC2 (single isomer, unassigned) [Compound A-132] | ≤ 10 nM | 100 to 1000 nM | –
2 | COc1nc(-c2cccc(-c3cccc(NC(=O)c4cn(C)c(=O)n(C)c4=O)c3Cl)c2Cl)cc2c1[C@@H](N1CC3(COCC(=O)N3)C1)CC2 (single isomer, unassigned) [Compound A-133] | 10 to 100 nM | – | 100 to 1000 nM
3 | COc1nc(-c2cccc(-c3cccc(NC(=O)c4cn(C)c(=O)n(C)c4=O)c3Cl)c2Cl)cc2c1[C@H](N1CC3(COCC(=O)N3)C1)CC2 (single isomer, unassigned) [Compound A-134] | ≤ 10 nM | – | ≤ 10 nM
4 | COc1nc(-c2cccc(-c3cccc(NC(=O)c4cn(C)c(=O)n(C)c4=O)c3Cl)c2Cl)cc2c1[C@@H](NC[C@@H]1CNC(=O)C1)CC2 (single isomer, unassigned) [Compound A-135] | ≤ 10 nM | – | 100 to 1000 nM
5 | COc1nc(-c2cccc(-c3cccc(NC(=O)c4cn(C)c(=O)n(C)c4=O)c3Cl)c2Cl)cc2c1[C@H](NC[C@@H]1CNC(=O)C1)CC2 (single isomer, unassigned) [Compound A-136] | ≤ 10 nM | – | ≤ 10 nM
6 | COc1nc(-c2cccc(-c3cccc(NC(=O)c4cn(C)c(=O)n(C)c4=O)c3C)c2Cl)cc2c1[C@@H](NC[C@@H]1CNC(=O)C1)CC2 (single isomer, unassigned) [Compound A-137] | ≤ 10 nM | – | 1000 to 10000 nM
7 | COc1nc(-c2cccc(-c3cccc(NC(=O)c4ccnn(C)c4=O)c3Cl)c2Cl)cc2c1C(N1CC(C(=O)O)C1)CC2 (single isomer, unassigned) [Compound J-1] | ≤ 10 nM | – | ≤ 10 nM
8 | COc1nc(-c2cccc(-c3cccc(NC(=O)c4ccnn(C)c4=O)c3C)c2Cl)cc2c1[C@@H](N1CC(C(=O)O)C1)CC2 (single isomer, unassigned) [Compound J-2] | ≤ 10 nM | – | ≤ 10 nM
9 | COc1nc(-c2cccc(-c3cccc(NC(=O)c4cn(C)c(=O)n(C)c4=O)c3Cl)c2Cl)cc2c1[C@@H](N1CC(C(=O)O)C1)CC2 (single isomer, unassigned) [Compound J-3] | ≤ 10 nM | – | ≤ 10 nM
10 | COc1nc(-c2cccc(-c3cccc(NC(=O)c4cn(C)c(=O)n(C)c4=O)c3Cl)c2Cl)cc2c1[C@H](N1CC(C(=O)O)C1)CC2 (single isomer, unassigned) [Compound J-4] | ≤ 10 nM | – | 100 to 1000 nM
11 | COc1nc(-c2cccc(-c3cccc(NC(=O)c4cn(C)c(=O)n(C)c4=O)c3C)c2Cl)cc2c1C(NC[C@@H]1CCC(=O)N1)C(F)C2 (single isomer, unassigned) [Compound K-1a] | ≤ 10 nM | 10 to 100 nM | –
12 | COc1nc(-c2cccc(-c3cccc(NC(=O)c4cn(C)c(=O)n(C)c4=O)c3C)c2Cl)cc2c1C(NC[C@@H]1CCC(=O)N1)C(F)C2 (single isomer, unassigned) [Compound K-1b] | ≤ 10 nM | 100 to 1000 nM | –
13 | COc1nc(-c2cccc(-c3cccc(NC(=O)c4cn(C)c(=O)n(C)c4=O)c3C)c2Cl)cc2c1[C@@H](NC[C@@H]1CCC(=O)N1)CC2 [Compound A-2] | ≤ 10 nM | – | ≤ 10 nM
14 | COc1nc(-c2cccc(-c3cccc(NC(=O)c4cn(C)c(=O)n(C)c4=O)c3F)c2Cl)cc2c1[C@@H](NC[C@@H]1CCC(=O)N1)CC2 [Compound A-3] | ≤ 10 nM | – | ≤ 10 nM
15 | COc1nc(-c2cccc(-c3cccc(NC(=O)c4cn(C)c(=O)n(C)c4=O)c3Cl)c2C)cc2c1[C@@H](NC[C@@H]1CCC(=O)N1)CC2 [Compound A-4] | ≤ 10 nM | – | ≤ 10 nM
16 | COc1nc(-c2cccc(-c3cccc(NC(=O)c4cn(C)c(=O)n(C)c4=O)c3C)c2C)cc2c1[C@@H](NC[C@@H]1CCC(=O)N1)CC2 [Compound A-5] | ≤ 10 nM | – | ≤ 10 nM
17 | COc1nc(-c2cccc(-c3cccc(NC(=O)c4cn(C)c(=O)n(C)c4=O)c3F)c2C)cc2c1[C@@H](NC[C@@H]1CCC(=O)N1)CC2 [Compound A-6] | ≤ 10 nM | – | 10 to 100 nM
18 | COc1nc(-c2cccc(-c3cccc(NC(=O)c4cn(C)c(=O)n(C)c4=O)c3Cl)c2F)cc2c1[C@@H](NC[C@@H]1CCC(=O)N1)CC2 [Compound A-7] | ≤ 10 nM | – | ≤ 10 nM
19 | COc1nc(-c2cccc(-c3cccc(NC(=O)c4cn(C)c(=O)n(C)c4=O)c3C)c2F)cc2c1[C@@H](NC[C@@H]1CCC(=O)N1)CC2 [Compound A-8] | ≤ 10 nM | – | ≤ 10 nM

Row | SMILES | IC50 (PD-1/PD-L1 PPI) | EC50 (PD-1/PD-L1 interaction) | EC50 (PD-1/PD-L1 interaction; Homo sapiens, Jurkat, 6 h)
20 | COc1nc(-c2cccc(-c3cccc(NC(=O)c4cn(C)c(=O)n(C)c4=O)c3F)c2F)cc2c1[C@H](NC[C@@H]1CCC(=O)N1)CC2 [Compound A-17] | ≤ 10 nM | – | 100 to 1000 nM
21 | COc1nc(-c2cccc(-c3cccc(NC(=O)c4ccnn(C)c4=O)c3Cl)c2Cl)cc2c1[C@@H](NC[C@@H]1CCC(=O)N1)CC2 [Compound A-43] | ≤ 10 nM | – | ≤ 10 nM
22 | COc1nc(-c2cccc(-c3cccc(NC(=O)c4ccnn(C)c4=O)c3Cl)c2Cl)cc2c1[C@@H](NC[C@@H]1CCC(=O)N1)CO2 [Compound A-44] | ≤ 10 nM | – | 10 to 100 nM
23 | COc1nc(-c2cccc(-c3cccc(NC(=O)c4ccnn(C)c4=O)c3C)c2F)cc2c1[C@@H](NC[C@@H]1CCC(=O)N1)CC2 [Compound A-45] | ≤ 10 nM | – | 10 to 100 nM
24 | COc1nc(-c2cccc(-c3cccc(NC(=O)c4ccnn(C)c4=O)c3C)c2Cl)cc2c1[C@@H](NC[C@@H]1CCC(=O)N1)CO2 [Compound A-46] | ≤ 10 nM | – | ≤ 10 nM
25 | COc1nc(-c2cccc(-c3cccc(NC(=O)c4ccnn(C)c4=O)c3C)c2Cl)cc2c1[C@@H](NC[C@@H]1CCC(=O)N1)CC2 [Compound A-47] | ≤ 10 nM | – | ≤ 10 nM
26 | COc1nc(-c2cccc(-c3cccc(NC(=O)c4ccn[nH]c4=O)c3Cl)c2Cl)cc2c1[C@@H](NC[C@@H]1CCC(=O)N1)CC2 [Compound A-51] | ≤ 10 nM | – | ≤ 10 nM
27 | COc1nc(-c2cccc(-c3cccc(NC(=O)c4ccn[nH]c4=O)c3C)c2Cl)cc2c1[C@@H](NC[C@@H]1CCC(=O)N1)CC2 [Compound A-52] | ≤ 10 nM | – | 10 to 100 nM
28 | COc1nc(-c2cccc(-c3cccc(NC(=O)c4cn(C)c(=O)n(C)c4=O)c3OC)c2Cl)cc2c1[C@@H](NC[C@@H]1CCC(=O)N1)CC2 [Compound A-53] | ≤ 10 nM | – | 100 to 1000 nM
29 | COc1nc(-c2cccc(-c3cccc(NC(=O)c4c[nH]c(=O)[nH]c4=O)c3C)c2Cl)cc2c1[C@@H](NC[C@@H]1CCC(=O)N1)CC2 [Compound A-54] | ≤ 10 nM | – | 10 to 100 nM
30 | COc1nc(-c2cccc(-c3cccc(NC(=O)c4c[nH]c(=O)n(C)c4=O)c3C)c2Cl)cc2c1[C@@H](NC[C@@H]1CCC(=O)N1)CC2 [Compound A-55] | ≤ 10 nM | – | ≤ 10 nM
31 | COc1nc(-c2cccc(-c3cccc(NC(=O)c4cn(C)c(=O)[nH]c4=O)c3C)c2Cl)cc2c1[C@@H](NC[C@@H]1CCC(=O)N1)CC2 [Compound A-56] | ≤ 10 nM | – | 10 to 100 nM
32 | COc1nc(-c2cccc(-c3cccc(NC(=O)c4cn(C)c(=O)n(C)c4=O)c3C#N)c2Cl)cc2c1[C@@H](NC[C@@H]1CCC(=O)N1)CC2 [Compound A-57] | ≤ 10 nM | – | ≤ 10 nM
33 | COc1nc(-c2cccc(-c3cccc(NC(=O)c4nn(C)c(=O)n(C)c4=O)c3C)c2Cl)cc2c1[C@@H](NC[C@@H]1CCC(=O)N1)CC2 [Compound A-58] | ≤ 10 nM | – | ≤ 10 nM
34 | COc1nc(-c2cccc(-c3ccc(F)c(NC(=O)c4cn(C)c(=O)n(C)c4=O)c3C)c2Cl)cc2c1[C@@H](NC[C@@H]1CCC(=O)N1)CC2 [Compound A-59] | ≤ 10 nM | – | 10 to 100 nM
35 | COc1nc(-c2cccc(-c3cc(F)cc(NC(=O)c4cn(C)c(=O)n(C)c4=O)c3C)c2Cl)cc2c1[C@@H](NC[C@@H]1CCC(=O)N1)CC2 [Compound A-60] | ≤ 10 nM | – | ≤ 10 nM
36 | COc1nc(-c2cccc(-c3cc(Cl)cc(NC(=O)c4cn(C)c(=O)n(C)c4=O)c3C)c2Cl)cc2c1[C@@H](NC[C@@H]1CCC(=O)N1)CC2 [Compound A-61] | ≤ 10 nM | – | 10 to 100 nM
37 | COc1nc(-c2cccc(-c3cc(F)cc(NC(=O)c4nn(C)c(=O)n(C)c4=O)c3C)c2Cl)cc2c1[C@@H](NC[C@@H]1CCC(=O)N1)CC2 [Compound A-62] | ≤ 10 nM | – | ≤ 10 nM
38 | COc1nc(-c2cccc(-c3cc(F)cc(NC(=O)c4ccnn(C)c4=O)c3C)c2Cl)cc2c1[C@@H](NC[C@@H]1CCC(=O)N1)CC2 [Compound A-63] | ≤ 10 nM | – | ≤ 10 nM

— US12534450B2, “Methods and compositions for targeting PD-L1” (Aligos Therapeutics, Inc., priority 2021, dated 2026)
